Experimental data published in patent US7514438B2, “Melanin concentrating hormone receptor antagonist” (Amgen, Inc., priority 2003, dated 2009).
pIC50: −log10 of the molar value. Where two headings read alike, the source gives them in different places.

Target: T1, rat MCH 1 receptor (rMCH1R) (Rattus norvegicus, UniProt P97639)
T1 construct: expressed in transfected cells; host or cells: HEK 293 (membranes)
Assay: 125I-MCH ligand binding assay, rMCH
Conditions: HEK 293 membranes, 0.2 nM 125I native-MCH, read-out: IC50 in the rMCH binding assay
Procedure: Human embryonic kidney cells (293 total) expressing either human, rat, or mouse MCH receptor were harvested from 150 mm culture dishes using PBS. Spinning at 1500 rpm for 2 minutes initially pelleted cells. The resulting pellet was then homogenized in 15 mL ice cold sucrose buffer (25 mM HEPES, 0.3 M sucrose, pH 7.4) with a motorized, glass fitted, Teflon® homogenizer. The homogenate was centrifuged at 48,000×g at 4° C. for 10 minutes, resuspended in 15 mL assay buffer (25 mM HEPES, 10 mM mgCl2, 0.2% BSA, 0.1 mg/mL STI, 0.1 mg/mL Pefabloc®, 1 μM Phosphoramidon, pH 7.4) with a Tissue-Tearor® (Biospec Products) and centrifuged again at 48,000×g for 10 minutes. The pellet was homogenized for a third time in 15 mL assay buffer using the Tissue-Tearor® and again centrifuged at 48,000×g for 10 minutes. The resulting pellet was resuspended in assay buffer at a wet weight concentration of 10-20 mg/mL.
Binding assays were determined as described below using mouse, rat or human MCH 1 receptors (mMCH1R, rMCH1R, and hMCH1R, respectively) expressed in HEK 293; IC50 values were calculated.
Binding assays were performed in 96-well U-bottom plates. Membranes (100 μg tissue) were incubated at 30° C. for 90 minutes in assay buffer with various peptides in the presence of 0.2 nM ^125I native-MCH (Perkin-Elmer Life Sciences, Boston, Mass.) in 100 μL total volume. Non-specific binding was assessed in the presence of 1 μM cold native-MCH. The reaction was terminated by rapid filtration through Unfilter-96 GF/C glass fiber filter plates (FilterMate® 196 Harvester, Packard Instrument Co., Meriden, Conn.) pre-soaked in PBS/0.5% BSA, followed by three washes with 300 μL ice-cold water. Bound radioactivity was determined using a TopCount® microplate scintillation and luminescence counter (Packard Instrument Co., Meriden, Conn.). Nonlinear regression analyses of drug concentration curves were performed using GraphPad Prism® (GraphPad Software, Inc., San Diego, Calif.).

T1 sequence (P97639 whole entry): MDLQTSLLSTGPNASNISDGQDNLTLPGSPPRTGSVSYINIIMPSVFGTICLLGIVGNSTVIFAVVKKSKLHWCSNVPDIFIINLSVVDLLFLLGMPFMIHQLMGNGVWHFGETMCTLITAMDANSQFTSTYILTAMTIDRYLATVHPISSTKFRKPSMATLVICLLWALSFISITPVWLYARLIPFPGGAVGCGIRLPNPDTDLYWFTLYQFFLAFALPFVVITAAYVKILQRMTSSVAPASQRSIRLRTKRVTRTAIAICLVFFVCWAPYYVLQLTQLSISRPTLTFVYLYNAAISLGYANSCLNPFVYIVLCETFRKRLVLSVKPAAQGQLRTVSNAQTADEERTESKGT

| SMILES | pIC50 (100 μM or less list) | pIC50 (100 nM or less list) |
| --- | --- | --- |
| CC(C)(C)OC(=O)Cn1nnnc1[C@H](c1ccccc1)N1CCN(C/C=C/c2ccccc2)CC1 (racemic) [Compound 24, (5-{phenyl-[4-(3-phenylallyl)piperazin-1-yl]methyl}tetrazol-1-yl)acetic acid tert-butyl ester] | ≥ 4.00 |  |
| C(=C\c1ccccc1)/CN1CCN([C@@H](c2ccccc2)c2nnnn2CCC(c2ccccc2)c2ccccc2)CC1 (racemic) [Compound 27, 1-{[1-(3,3-diphenylpropyl)-1H-tetrazol-5-yl]phenylmethyl}-4-(3-phenylallyl)piperazine] | ≥ 4.00 |  |
| Cc1cccc(C)c1-n1nnnc1[C@H](c1ccccn1)N1CCN(C/C=C/c2ccccc2)CC1 (racemic) [Compound 75, 1-{[1-(2,6-dimethylphenyl)-1H-tetrazol-5-yl]pyridin-2-ylmethyl}-4-(3-phenylallyl)piperazine] | ≥ 4.00 |  |
| Cc1ccc([C@@H](c2nnnn2-c2c(C)cccc2C)N2CCN(C/C=C/c3ccccc3)CC2)cc1C (racemic) [Compound 123, 1-{(3,4-dimethylphenyl)-[1-(2,6-dimethylphenyl)-1H-tetrazol-5-yl]methyl}-4-(3-phenylallyl)piperazine] | ≥ 4.00 |  |
| Cc1cccc(C)c1-n1nnnc1[C@H](c1ccc(C(C)C)cc1)N1CCN(C/C=C/c2ccccc2)CC1 (racemic) [Compound 125, 1-[[1-(2,6-dimethylphenyl)-1H-tetrazol-5-yl]-(4-isopropylphenyl)methyl}-4-(3-phenylallyl)piperazine] | ≥ 4.00 |  |
| CSc1ccc([C@@H](c2nnnn2-c2c(C)cccc2C)N2CCN(C/C=C/c3ccccc3)CC2)cc1 (racemic) [Compound 126, 1-[[1-(2,6-dimethylphenyl)-1H-tetrazol-5-yl]-(4-methylsulfanylphenyl)methyl]-4-(3-phenylallyl)piperazine] | ≥ 4.00 |  |
| Cc1cccc(C)c1-n1nnnc1[C@H](c1ccc(CC(C)C)cc1)N1CCN(C/C=C/c2ccccc2)CC1 (racemic) [Compound 130, 1-[[1-(2,6-dimethylphenyl)-1H-tetrazol-5-yl]-(4-isobutylphenyl)methyl]-4-(3-phenylallyl)piperazine] | ≥ 4.00 |  |

Now from value to compound:

| pIC50 (100 μM or less list) | pIC50 (100 nM or less list) | SMILES |
| --- | --- | --- |
| ≥ 4.00 |  | C(=C\c1ccccc1)/CN1CCN([C@@H](c2ccccc2)c2nnnn2C2CCN(Cc3ccccc3)CC2)CC1 (racemic) [Compound 28, 1-{[1-(1-benzylpiperidin-4-yl)-1H-tetrazol-5-yl]phenylmethyl}-4-(3-phenylallyl)piperazine] |
| ≥ 4.00 |  | COc1ccc([C@@H](c2nnnn2-c2c(C)cccc2C)N2CCN(C/C=C/c3ccccc3)CC2)cc1 (racemic) [Compound 122, 1-[[1-(2,6-dimethylphenyl)-1H-tetrazol-5-yl]-(4-methoxyphenyl)methyl]-4-(3-phenylallyl)piperazine] |
| ≥ 4.00 |  | Cc1cccc(C)c1-n1nnnc1[C@H](c1ccc(F)c(F)c1)N1CCN(C/C=C/c2ccccc2)CC1 (racemic) [Compound 124, 1-{(3,4-difluoraphenyl)-[1-(2,6-dimethylphenyl)-1H-tetrazol-5-yl]methyl}-4-(3-phenylallyl)piperazine] |
| ≥ 4.00 |  | CCc1ccc([C@@H](c2nnnn2-c2c(C)cccc2C)N2CCN(C/C=C/c3ccccc3)CC2)cc1 (racemic) [Compound 127, 1-[[1-(2,6-dimethylphenyl)-1H-tetrazol-5-yl]-(4-ethylphenyl)methyl]-4-(3-phenylallyl)piperazine] |
| ≥ 4.00 |  | COc1ccc([C@@H](c2nnnn2-c2c(C)cccc2C)N2CCN(C/C=C/c3ccccc3)CC2)cc1OC (racemic) [Compound 128, 1-{(3,4-dimethoxyphenyl)-[1-(2,6-dimethylphenyl)-1H-tetrazol-5-yl]methyl}-4-(3-phenylallyl)piperazine] |
| ≥ 4.00 | ≥ 7.00 | COc1cc([C@@H](c2nnnn2-c2c(C)cccc2C)N2CCN(C/C=C/c3ccccc3)CC2)ccc1OCc1ccccc1 (racemic) [Compound 129, 1-{(4-benzyloxy-3-methoxyphenyl)-[1-(2,6-dimethylphenyl)-1H-tetrazol-5-yl]methyl}-4-(3-phenylallyl)piperazine] |
